Assay results from publication PMC4503722, “Novel Phenotypic Outcomes Identified for a Public Collection of Approved Drugs from a Publicly Accessible Panel of Assays” (PLoS ONE, 2015).
Where two headings read alike, the source gives them in different places.

Key:
[1] = test system: panel of 7 colon cancer cell lines; assay: KRAS/Wnt synthetic lethal module: selectivity ratios across the colon cancer cell line panel (sub-modules); assay type: cell-based
HT-29 = assay: cells; assay type: cell-based; settings: Homo sapiens
NCI-H716 cells = assay: cells; assay type: cell-based, Human; settings: Homo sapiens, NCI-H716, read-out: GLP1 sec. EC50
SNU-C1 = assay: cells; assay type: cell-based; settings: Homo sapiens
hFLT3 = target: T1, hFLT3 (Homo sapiens, UniProt P36888); assay: Cerep LANCE kinase assay hFLT3 (S1 assay 35); assay type: biochemical; settings: kinase assay; read-out: FLT3
T1 construct: purchased Cerep (LANCE kinase assay platform, contract assay)

HeLa cells = assay: cells; assay type: cell-based; settings: Homo sapiens, HeLa, read-out: CellCycle G2/M
[2] = test system: endothelial tube formation in co-cultures of ECFCs and ADSCs treated with VEGF; assay: cells; assay type: cell-based, human; settings: Homo sapiens
hJAK2 = target: T2, hJAK2 (Homo sapiens, UniProt O60674); assay: Cerep LANCE kinase assay hJAK2 (S1 assay 33); assay type: biochemical; settings: kinase assay; read-out: JAK2
T2 construct: purchased Cerep (LANCE kinase assay platform, contract assay)

[3] = test system: HCT116 cells treated with a GSK3β inhibitor; assay: cells; assay type: cell-based; settings: Homo sapiens
INS-1E cells = assay: cells; assay type: cell-based, rat; settings: Rattus norvegicus, INS-1E, read-out: Ins. sec. EC50
hGSK3b = target: T3, hGSK3b (Homo sapiens, UniProt P49841); assay: Cerep LANCE kinase assay hGSK3b (S1 assay 34); assay type: biochemical; settings: kinase assay; read-out: GSK3b
T3 construct: purchased Cerep (LANCE kinase assay platform, contract assay)

DLD-1 = assay: cells; assay type: cell-based; settings: Homo sapiens
[4] = test system: nuclear β-catenin in C2C12 cells; assay: cells; assay type: cell-based; settings: Mus musculus, C2C12, read-out: Wnt pot. EC50
SW480 = assay: cells; assay type: cell-based; settings: Homo sapiens
RKO = assay: cells; assay type: cell-based; settings: Homo sapiens, RKO
Colo320 = assay: cells; assay type: cell-based; settings: Homo sapiens
hp70S6K1 (RPS6KB1) = target: T4, hp70S6K1 (RPS6KB1) (Homo sapiens, UniProt P23443); assay: Cerep LANCE kinase assay hp70S6K1 (S1 assay 31); assay type: biochemical; settings: kinase assay; read-out: p70S6K1
T4 construct: purchased Cerep (LANCE kinase assay platform, contract assay)

hKDR = target: T5, hKDR (Homo sapiens, UniProt P35968); assay: Cerep LANCE kinase assay hKDR (S1 assay 32); assay type: biochemical; settings: kinase assay; read-out: KDR
T5 construct: purchased Cerep (LANCE kinase assay platform, contract assay)

[5] = test system: ECFC/ADSC co-culture cell nuclei number; settings: human
HCT116 = assay: cells; assay type: cell-based; settings: Homo sapiens

T2 sequence (O60674 whole entry): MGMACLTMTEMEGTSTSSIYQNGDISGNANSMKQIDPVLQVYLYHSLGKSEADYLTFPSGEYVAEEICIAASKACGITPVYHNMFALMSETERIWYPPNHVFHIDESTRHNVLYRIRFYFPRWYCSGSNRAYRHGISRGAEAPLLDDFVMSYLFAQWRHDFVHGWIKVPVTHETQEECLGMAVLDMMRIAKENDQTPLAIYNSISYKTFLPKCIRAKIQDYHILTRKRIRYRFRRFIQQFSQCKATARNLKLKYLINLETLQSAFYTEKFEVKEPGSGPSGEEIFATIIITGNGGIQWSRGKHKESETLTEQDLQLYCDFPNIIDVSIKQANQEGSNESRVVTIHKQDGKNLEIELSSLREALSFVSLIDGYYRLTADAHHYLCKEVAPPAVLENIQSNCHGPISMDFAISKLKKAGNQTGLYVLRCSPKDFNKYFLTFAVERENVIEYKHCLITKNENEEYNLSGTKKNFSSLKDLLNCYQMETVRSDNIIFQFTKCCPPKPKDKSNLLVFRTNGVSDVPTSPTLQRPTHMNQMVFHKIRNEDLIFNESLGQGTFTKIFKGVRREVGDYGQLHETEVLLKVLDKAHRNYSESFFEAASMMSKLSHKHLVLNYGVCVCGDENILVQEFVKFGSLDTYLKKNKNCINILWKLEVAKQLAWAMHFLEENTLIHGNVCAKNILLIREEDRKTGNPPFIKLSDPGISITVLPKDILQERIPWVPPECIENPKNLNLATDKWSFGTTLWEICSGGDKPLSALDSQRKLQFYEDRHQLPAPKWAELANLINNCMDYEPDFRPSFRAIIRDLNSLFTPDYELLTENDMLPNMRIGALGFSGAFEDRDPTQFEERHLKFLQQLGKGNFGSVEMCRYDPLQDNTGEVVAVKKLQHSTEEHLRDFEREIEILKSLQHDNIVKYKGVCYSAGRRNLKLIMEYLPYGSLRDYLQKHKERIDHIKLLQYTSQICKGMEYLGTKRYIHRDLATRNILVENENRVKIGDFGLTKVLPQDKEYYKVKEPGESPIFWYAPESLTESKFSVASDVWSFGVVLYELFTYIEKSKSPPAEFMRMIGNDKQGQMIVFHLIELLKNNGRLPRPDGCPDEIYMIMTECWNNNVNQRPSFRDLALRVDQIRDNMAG
T5 sequence (P35968 20-1356): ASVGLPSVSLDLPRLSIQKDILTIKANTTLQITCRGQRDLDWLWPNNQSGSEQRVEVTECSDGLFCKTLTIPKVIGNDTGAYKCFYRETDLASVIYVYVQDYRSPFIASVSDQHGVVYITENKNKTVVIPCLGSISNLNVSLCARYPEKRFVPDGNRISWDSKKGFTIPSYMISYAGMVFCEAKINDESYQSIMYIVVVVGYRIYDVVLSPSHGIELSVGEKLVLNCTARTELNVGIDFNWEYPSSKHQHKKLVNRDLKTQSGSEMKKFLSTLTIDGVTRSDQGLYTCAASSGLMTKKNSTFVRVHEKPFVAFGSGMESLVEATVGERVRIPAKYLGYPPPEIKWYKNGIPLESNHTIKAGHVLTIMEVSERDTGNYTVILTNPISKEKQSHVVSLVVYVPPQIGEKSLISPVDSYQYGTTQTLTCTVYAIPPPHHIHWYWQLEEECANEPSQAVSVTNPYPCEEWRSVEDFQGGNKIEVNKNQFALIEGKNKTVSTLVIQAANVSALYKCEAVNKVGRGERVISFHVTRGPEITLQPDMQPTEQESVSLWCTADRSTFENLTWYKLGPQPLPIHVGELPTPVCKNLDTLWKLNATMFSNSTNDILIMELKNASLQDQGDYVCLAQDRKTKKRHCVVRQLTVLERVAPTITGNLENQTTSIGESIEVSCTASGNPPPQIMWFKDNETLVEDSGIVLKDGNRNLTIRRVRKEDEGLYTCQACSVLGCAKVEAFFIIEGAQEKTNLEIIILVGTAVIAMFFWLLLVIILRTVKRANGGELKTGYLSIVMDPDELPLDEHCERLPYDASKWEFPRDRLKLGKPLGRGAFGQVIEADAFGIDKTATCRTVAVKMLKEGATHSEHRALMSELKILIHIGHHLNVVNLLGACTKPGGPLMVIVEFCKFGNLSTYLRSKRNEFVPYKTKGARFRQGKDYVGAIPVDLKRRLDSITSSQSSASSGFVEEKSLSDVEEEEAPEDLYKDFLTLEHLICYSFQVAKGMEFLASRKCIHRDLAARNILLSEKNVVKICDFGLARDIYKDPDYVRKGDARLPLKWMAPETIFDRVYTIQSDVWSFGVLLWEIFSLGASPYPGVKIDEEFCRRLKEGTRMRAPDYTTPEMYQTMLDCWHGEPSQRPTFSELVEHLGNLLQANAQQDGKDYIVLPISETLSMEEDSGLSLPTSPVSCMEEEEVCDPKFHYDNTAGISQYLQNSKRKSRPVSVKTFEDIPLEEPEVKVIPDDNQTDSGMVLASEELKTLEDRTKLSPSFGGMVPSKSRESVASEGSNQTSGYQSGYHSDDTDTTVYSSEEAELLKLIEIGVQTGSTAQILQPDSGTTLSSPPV
T1 sequence (P36888 27-993): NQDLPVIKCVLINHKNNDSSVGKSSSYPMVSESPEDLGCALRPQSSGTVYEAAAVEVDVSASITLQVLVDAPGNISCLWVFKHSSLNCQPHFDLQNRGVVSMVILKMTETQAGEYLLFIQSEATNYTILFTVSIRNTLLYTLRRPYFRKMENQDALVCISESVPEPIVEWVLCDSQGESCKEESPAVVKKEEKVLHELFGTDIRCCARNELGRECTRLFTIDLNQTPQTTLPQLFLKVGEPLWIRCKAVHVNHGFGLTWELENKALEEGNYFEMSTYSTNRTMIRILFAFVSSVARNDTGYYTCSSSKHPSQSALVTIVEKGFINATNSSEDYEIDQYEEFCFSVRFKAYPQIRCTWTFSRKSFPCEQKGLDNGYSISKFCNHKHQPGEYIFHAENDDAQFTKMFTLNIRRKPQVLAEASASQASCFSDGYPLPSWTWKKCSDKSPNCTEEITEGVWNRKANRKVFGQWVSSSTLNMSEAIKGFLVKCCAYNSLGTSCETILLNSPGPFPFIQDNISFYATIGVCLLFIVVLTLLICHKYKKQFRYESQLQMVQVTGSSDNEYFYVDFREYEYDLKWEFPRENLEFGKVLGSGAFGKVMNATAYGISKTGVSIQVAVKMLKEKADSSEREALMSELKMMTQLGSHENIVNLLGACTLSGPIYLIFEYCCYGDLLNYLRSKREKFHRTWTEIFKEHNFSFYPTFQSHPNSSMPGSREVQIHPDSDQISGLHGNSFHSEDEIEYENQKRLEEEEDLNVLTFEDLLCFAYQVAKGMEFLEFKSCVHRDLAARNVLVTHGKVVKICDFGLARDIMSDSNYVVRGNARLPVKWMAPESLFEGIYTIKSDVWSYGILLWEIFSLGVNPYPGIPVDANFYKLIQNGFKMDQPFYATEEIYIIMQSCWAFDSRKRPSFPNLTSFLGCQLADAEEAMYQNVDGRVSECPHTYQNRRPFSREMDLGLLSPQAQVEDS
T3 sequence (P49841 whole entry): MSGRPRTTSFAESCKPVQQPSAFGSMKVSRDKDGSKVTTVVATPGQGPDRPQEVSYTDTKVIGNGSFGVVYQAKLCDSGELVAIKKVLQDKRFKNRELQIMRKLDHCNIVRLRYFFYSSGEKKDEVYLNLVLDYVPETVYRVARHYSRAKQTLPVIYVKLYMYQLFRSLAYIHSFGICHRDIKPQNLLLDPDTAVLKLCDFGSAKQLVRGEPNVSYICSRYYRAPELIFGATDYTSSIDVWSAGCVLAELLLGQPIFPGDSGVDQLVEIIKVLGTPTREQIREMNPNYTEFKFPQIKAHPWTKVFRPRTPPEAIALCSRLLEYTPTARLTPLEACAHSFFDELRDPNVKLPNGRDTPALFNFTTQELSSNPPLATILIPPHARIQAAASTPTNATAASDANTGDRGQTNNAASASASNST
T4 sequence (P23443 whole entry): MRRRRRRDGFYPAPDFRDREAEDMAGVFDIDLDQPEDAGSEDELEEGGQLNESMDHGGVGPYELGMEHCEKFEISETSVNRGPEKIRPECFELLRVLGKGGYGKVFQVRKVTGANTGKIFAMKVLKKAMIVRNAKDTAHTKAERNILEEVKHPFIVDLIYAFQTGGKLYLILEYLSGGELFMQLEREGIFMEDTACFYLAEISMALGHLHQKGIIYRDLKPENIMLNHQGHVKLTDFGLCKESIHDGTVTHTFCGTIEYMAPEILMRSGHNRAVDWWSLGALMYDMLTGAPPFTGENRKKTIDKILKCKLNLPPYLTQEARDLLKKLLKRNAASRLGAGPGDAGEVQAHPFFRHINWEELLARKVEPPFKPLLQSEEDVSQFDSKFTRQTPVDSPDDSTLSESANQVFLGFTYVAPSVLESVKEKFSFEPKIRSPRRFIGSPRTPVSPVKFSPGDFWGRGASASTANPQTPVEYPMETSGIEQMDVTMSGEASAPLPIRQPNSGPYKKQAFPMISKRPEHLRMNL

COCc1c(C(C)C)nc(C(C)C)c(/C=C/[C@@H](O)C[C@@H](O)CC(=O)O)c1-c1ccc(F)cc1 [cerivastatin, reference compound]
fold potency difference KRAS mutant lines SW480 and HCT116 vs. KRAS wild-type lines Colo320 and SNU-C1 [1]: 5–10 fold | IC50 (HT-29; HT-29, 72 h, read-out: HT-29 viab. IC50): 1200 nM | IC50 (HT-29; HT-29, read-out: Basal_Viability ATP HT-29): 1210 nM | EC50 (NCI-H716 cells): > 10 µM | IC50 (SNU-C1; SNU-C1, 72 h, read-out: SNU-C1 viab. IC50): 1900 nM | IC50 (SNU-C1; SNU-C1, read-out: Basal_Viability ATP SNU-C1): 1870 nM | IC50 (hFLT3): > 20 µM | EC50 (HeLa cells): > 10 µM | IC50 ([2]; read-out: Anti-Angio IC50): 89 nM | IC50 ([2]; read-out: Anti-Angiogenesis): 89.4 nM | IC50 (hJAK2): > 20 µM | IC50 ([3]; HCT-116, 72 h, read-out: HCT-116 (GSK3β) viab. IC50): 53 nM | IC50 ([3]; HCT-116, read-out: GSK3b inh pretreated_Viability ATP HCT116): 52.9 nM | EC50 (INS-1E cells): > 10 µM | IC50 (hGSK3b): > 20 µM | IC50 (DLD-1; DLD-1, 72 h, read-out: DLD-1 viab. IC50): 2500 nM | IC50 (DLD-1; DLD-1, read-out: Basal_Viability ATP DLD-1): 2510 nM | EC50 [4]: 19.9 µM | IC50 (SW480; SW480, 72 h, read-out: SW480 viab. IC50): 140 nM | IC50 (SW480; SW480, read-out: Basal_Viability ATP SW480): 143 nM | IC50 (RKO; 72 h, read-out: RKO viab. IC50): 1000 nM | IC50 (RKO; read-out: Basal_Viability ATP RKO): 1010 nM | IC50 (Colo320; COLO 320, 72 h, read-out: Colo320 viab. IC50): 1900 nM | IC50 (Colo320; COLO 320, read-out: Basal_Viability ATP Colo 320): 1920 nM | IC50 (hp70S6K1 (RPS6KB1)): > 20 µM | IC50 (hKDR): > 20 µM | cytotoxicity IC50 relative to IC50 for inhibition of endothelial cord formation [5]: 2–3 fold | IC50 (HCT116; HCT-116, 72 h, read-out: HCT-116 viab. IC50): 240 nM | IC50 (HCT116; HCT-116, read-out: Basal_Viability ATP HCT116): 240 nM
